Test [1] is filed under the species Homo sapiens. Particulars: 10 uM.
The species entered for test [2] is Homo sapiens. Particulars: 1 uM.

Results on two compounds are retold here after ChEMBL document CHEMBL1148864, “Design of LFA-1 antagonists based on a 2,3-dihydro-1H-pyrrolizin-5(7aH)-one scaffold” (Bioorg Med Chem Lett, 2007).

The term inhibition denotes the relative decrease from the control value, in per cent. Read a high inhibition as strong suppression. Compound `O=C1C(c2cc(Cl)cc(Cl)c2)=C(c2cc[nH]n2)[C@]2(Cc3ccc(Br)cc3)CCCN12` registered an inhibition in the test filed under Homo sapiens [1] of 30%. Compound `N#Cc1ccc(C[C@@]23CCCN2C(=O)C(c2cc(Cl)cc(Cl)c2)=C3O)cc1` returned an inhibition in the test listed under Homo sapiens [2] of 27%.
